Results published in PubChem BioAssay (NCI).
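Five concentrations, 48 hours, 96-well plates. GI50 marks 50% less growth. TGI denotes the concentration required for complete inhibition of growth.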

How the values were obtained:
Assay in all cases: NCI-60 cell line screen, 48 h
SK-MEL-5 melanoma = test system: SK-MEL-5 melanoma
LOX IMVI melanoma = test system: LOX IMVI melanoma
A549 NSCLC = test system: A549 NSCLC
RXF 393 renal = test system: RXF 393 renal
NCI-H522 lung = test system: NCI-H522 lung
SK-OV-3 ovarian = test system: SK-OV-3 ovarian
M14 melanoma = test system: M14 melanoma
SNB-75 CNS = test system: SNB-75 CNS
SF-295 CNS = test system: SF-295 CNS
MALME-3M melanoma = test system: MALME-3M melanoma
BT-549 breast = test system: BT-549 breast
SR leukemia = test system: SR leukemia
U251 CNS = test system: U251 CNS
HCT-15 colon = test system: HCT-15 colon
PC-3 prostate = test system: PC-3 prostate
HCT-116 colon = test system: HCT-116 colon
SN12C renal = test system: SN12C renal
K-562 leukemia = test system: K-562 leukemia
CAKI-1 renal = test system: CAKI-1 renal
SNB-19 CNS = test system: SNB-19 CNS
MDA-MB-231 breast = test system: MDA-MB-231 breast
UACC-62 melanoma = test system: UACC-62 melanoma
MCF7 breast = test system: MCF7 breast
UO-31 renal = test system: UO-31 renal
NCI-H226 lung = test system: NCI-H226 lung
NCI/ADR-RES ovarian = test system: NCI/ADR-RES ovarian
MOLT-4 leukemia = test system: MOLT-4 leukemia
A498 renal = test system: A498 renal
SF-268 CNS = test system: SF-268 CNS

C#C[C@@]1(O)[C@@H](CO)O[C@@H](n2cc(Br)c3c(Cl)ccnc32)[C@@H]1O
GI50 (SK-MEL-5 melanoma): 39.7 µM
TGI (SK-MEL-5 melanoma): > 100 µM
GI50 (LOX IMVI melanoma): 0.289 µM
TGI (LOX IMVI melanoma): 2.15 µM
GI50 (A549 NSCLC): 7.01 µM
TGI (A549 NSCLC): > 100 µM
GI50 (RXF 393 renal): 0.283 µM
TGI (RXF 393 renal): 1.23 µM
GI50 (NCI-H522 lung): 3.64 µM
TGI (NCI-H522 lung): > 100 µM
GI50 (SK-OV-3 ovarian): 3.66 µM
TGI (SK-OV-3 ovarian): > 100 µM
GI50 (M14 melanoma): 17 µM
TGI (M14 melanoma): > 100 µM
GI50 (SNB-75 CNS): 0.657 µM
TGI (SNB-75 CNS): > 39.2 µM
GI50 (SF-295 CNS): 1.03 µM
TGI (SF-295 CNS): > 100 µM
GI50 (MALME-3M melanoma): 32.3 µM
TGI (MALME-3M melanoma): > 100 µM
GI50 (BT-549 breast): 0.522 µM
TGI (BT-549 breast): 12.2 µM
GI50 (SR leukemia): 1.06 µM
TGI (SR leukemia): > 100 µM
GI50 (U251 CNS): 40 µM
TGI (U251 CNS): > 100 µM
GI50 (HCT-15 colon): 0.55 µM
TGI (HCT-15 colon): > 100 µM
GI50 (PC-3 prostate): 0.217 µM
TGI (PC-3 prostate): 0.874 µM
GI50 (HCT-116 colon): 0.859 µM
TGI (HCT-116 colon): > 100 µM
GI50 (SN12C renal): 0.59 µM
TGI (SN12C renal): > 100 µM
GI50 (K-562 leukemia): 0.542 µM
TGI (K-562 leukemia): > 100 µM
GI50 (CAKI-1 renal): 0.602 µM
TGI (CAKI-1 renal): > 100 µM
GI50 (SNB-19 CNS): 1.54 µM
TGI (SNB-19 CNS): > 100 µM
GI50 (MDA-MB-231 breast): 0.289 µM
TGI (MDA-MB-231 breast): 1.94 µM
GI50 (UACC-62 melanoma): 15.6 µM
TGI (UACC-62 melanoma): > 100 µM
GI50 (MCF7 breast): 0.394 µM
TGI (MCF7 breast): > 31.6 µM
GI50 (UO-31 renal): 2.16 µM
TGI (UO-31 renal): > 100 µM
GI50 (NCI-H226 lung): 1.08 µM
TGI (NCI-H226 lung): > 27 µM
GI50 (NCI/ADR-RES ovarian): 0.422 µM
TGI (NCI/ADR-RES ovarian): 5.03 µM
GI50 (MOLT-4 leukemia): 0.324 µM
TGI (MOLT-4 leukemia): 3.05 µM
GI50 (A498 renal): 0.303 µM
TGI (A498 renal): 2.55 µM
GI50 (SF-268 CNS): 10.5 µM
TGI (SF-268 CNS): > 100 µM
